Test results from ChEMBL document CHEMBL1201862, “PubChem BioAssay data set” (2004).
Activity calls are given as the source filed them.

Assays:
Cytochrome P450 2C9 = Cytochrome P450 2C9 (Homo sapiens, UniProt P11712)
Cytochrome P450 1A2 = molecular target: T1, Cytochrome P450 1A2 (Homo sapiens, UniProt P05177);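 also: PubChem cytochrome P450 panel assay, CYP1A2 panel member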
T1 sequence (P05177 whole entry): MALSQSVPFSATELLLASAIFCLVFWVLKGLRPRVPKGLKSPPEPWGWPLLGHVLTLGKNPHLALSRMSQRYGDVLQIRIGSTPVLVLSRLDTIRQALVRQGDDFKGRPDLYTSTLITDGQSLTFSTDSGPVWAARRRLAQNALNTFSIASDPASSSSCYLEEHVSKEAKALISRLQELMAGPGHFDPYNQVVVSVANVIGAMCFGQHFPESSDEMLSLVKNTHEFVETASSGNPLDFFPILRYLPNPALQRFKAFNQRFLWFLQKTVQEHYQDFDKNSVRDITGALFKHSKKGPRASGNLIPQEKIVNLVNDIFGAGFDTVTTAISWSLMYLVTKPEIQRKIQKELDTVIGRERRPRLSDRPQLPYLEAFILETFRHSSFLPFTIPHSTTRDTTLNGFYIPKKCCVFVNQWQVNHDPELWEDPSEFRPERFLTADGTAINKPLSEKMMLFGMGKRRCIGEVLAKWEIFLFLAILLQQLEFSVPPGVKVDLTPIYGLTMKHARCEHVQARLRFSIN

Cytochrome P450 2D6 = Cytochrome P450 2D6 (Homo sapiens, UniProt P10635);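 also: CYP2D6 member of a cytochrome P450 panel assay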
Sequence of Cytochrome P450 2D6 (P10635 whole entry): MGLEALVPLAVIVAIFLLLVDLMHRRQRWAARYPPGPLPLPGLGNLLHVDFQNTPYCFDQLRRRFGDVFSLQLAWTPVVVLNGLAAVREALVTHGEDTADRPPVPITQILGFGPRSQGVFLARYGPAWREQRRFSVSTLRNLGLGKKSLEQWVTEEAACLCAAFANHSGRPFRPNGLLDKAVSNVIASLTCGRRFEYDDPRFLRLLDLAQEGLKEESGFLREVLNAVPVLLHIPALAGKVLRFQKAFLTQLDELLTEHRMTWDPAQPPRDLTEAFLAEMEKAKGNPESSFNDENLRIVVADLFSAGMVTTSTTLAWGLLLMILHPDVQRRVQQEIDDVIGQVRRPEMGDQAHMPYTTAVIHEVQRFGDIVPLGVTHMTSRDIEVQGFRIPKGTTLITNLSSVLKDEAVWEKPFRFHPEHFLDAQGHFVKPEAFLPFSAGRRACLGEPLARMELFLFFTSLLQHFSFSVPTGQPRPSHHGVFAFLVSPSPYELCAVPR

Cytochrome P450 3A4 = Cytochrome P450 3A4 (Homo sapiens, UniProt P08684);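 also: CYP3A4 tested as one member of a cytochrome P450 panel screen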
Sequence of Cytochrome P450 3A4 (P08684 whole entry): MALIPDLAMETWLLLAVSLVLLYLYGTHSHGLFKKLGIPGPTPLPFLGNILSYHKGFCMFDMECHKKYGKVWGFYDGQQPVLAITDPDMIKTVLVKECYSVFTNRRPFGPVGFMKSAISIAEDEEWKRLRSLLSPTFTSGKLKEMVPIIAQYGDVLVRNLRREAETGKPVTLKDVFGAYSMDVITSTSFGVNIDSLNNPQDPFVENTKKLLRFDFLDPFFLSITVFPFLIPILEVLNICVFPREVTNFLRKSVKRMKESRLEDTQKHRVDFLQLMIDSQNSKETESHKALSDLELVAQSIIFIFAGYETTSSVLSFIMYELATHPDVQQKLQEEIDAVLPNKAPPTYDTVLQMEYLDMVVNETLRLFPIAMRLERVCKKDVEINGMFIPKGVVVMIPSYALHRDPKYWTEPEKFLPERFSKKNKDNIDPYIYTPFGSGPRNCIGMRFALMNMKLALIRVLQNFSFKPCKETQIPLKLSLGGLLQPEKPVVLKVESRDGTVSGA

Nonstructural protein 1 = Nonstructural protein 1 (Influenza A virus, UniProt Q194T2); format: functional, Influenza A virus (A/California/07/2009(H1N1))
Sequence of Nonstructural protein 1 (Q194T2 whole entry, the tested form may be a part): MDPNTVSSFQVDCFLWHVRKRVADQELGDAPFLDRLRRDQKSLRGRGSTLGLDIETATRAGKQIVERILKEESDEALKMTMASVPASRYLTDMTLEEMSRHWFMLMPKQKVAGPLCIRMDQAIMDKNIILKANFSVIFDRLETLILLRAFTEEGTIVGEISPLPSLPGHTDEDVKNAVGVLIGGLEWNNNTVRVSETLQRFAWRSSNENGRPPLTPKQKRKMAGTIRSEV

[1] = molecular target: T2, Carboxy-terminal domain RNA polymerase II polypeptide A small phosphatase 1 (Homo sapiens, UniProt Q9GZU7); assay: CTDSP1 inhibitors, concentration-response, biochemical, absorbance readout, ultra-high-throughput screen actives (AID 540297); format: functional
T2 sequence (Q9GZU7 whole entry): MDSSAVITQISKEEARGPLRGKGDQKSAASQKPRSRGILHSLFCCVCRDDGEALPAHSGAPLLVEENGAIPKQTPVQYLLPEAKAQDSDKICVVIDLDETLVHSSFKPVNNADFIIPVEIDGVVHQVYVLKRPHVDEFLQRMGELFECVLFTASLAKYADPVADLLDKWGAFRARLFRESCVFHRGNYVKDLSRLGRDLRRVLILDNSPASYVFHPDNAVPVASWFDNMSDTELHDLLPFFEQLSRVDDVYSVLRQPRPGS

Paired box protein Pax-8 = Paired box protein Pax-8 (Homo sapiens, UniProt Q06710); assay: PAX8 transcriptional activity inhibition in RMG-I – RMG-I cells, luciferase, cherry-pick, dose response (AID 687027); format: functional, cell-based;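 also: luciferase reporter driven by Pax8 target thyroperoxidase promoter measured by SteadyGlo luminescence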
Sequence of Paired box protein Pax-8 (Q06710 whole entry): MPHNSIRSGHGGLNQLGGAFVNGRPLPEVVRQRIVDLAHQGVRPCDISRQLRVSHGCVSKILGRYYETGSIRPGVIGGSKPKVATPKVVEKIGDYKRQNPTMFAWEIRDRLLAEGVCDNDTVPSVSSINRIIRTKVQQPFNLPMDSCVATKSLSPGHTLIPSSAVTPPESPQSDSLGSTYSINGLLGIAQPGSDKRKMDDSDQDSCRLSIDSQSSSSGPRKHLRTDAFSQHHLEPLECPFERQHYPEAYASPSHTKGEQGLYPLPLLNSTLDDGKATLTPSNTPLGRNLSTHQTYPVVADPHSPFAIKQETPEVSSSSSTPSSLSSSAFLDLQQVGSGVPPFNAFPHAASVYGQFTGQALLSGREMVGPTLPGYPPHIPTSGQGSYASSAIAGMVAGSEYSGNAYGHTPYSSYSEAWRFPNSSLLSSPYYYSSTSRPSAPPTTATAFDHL

[2] = Luminescence Cell-Based Dose Confirmation HTS to Identify Inhibitors of Platelet Dense Granule Release. [Related pubchem assays: 1663 (Primary HTS), 1678 (Summary of Project)]; format: functional
[3] = molecular target: T3, Rac GTPase-activating protein 1 (Homo sapiens, UniProt Q9H0H5); assay: blockers of MgcRacGAP-driven Rac1 GTP hydrolysis – biochemical, ADP Hunter fluorescence, primary and confirmatory, confirmation (AID 624330); format: functional
T3 sequence (Q9H0H5 whole entry): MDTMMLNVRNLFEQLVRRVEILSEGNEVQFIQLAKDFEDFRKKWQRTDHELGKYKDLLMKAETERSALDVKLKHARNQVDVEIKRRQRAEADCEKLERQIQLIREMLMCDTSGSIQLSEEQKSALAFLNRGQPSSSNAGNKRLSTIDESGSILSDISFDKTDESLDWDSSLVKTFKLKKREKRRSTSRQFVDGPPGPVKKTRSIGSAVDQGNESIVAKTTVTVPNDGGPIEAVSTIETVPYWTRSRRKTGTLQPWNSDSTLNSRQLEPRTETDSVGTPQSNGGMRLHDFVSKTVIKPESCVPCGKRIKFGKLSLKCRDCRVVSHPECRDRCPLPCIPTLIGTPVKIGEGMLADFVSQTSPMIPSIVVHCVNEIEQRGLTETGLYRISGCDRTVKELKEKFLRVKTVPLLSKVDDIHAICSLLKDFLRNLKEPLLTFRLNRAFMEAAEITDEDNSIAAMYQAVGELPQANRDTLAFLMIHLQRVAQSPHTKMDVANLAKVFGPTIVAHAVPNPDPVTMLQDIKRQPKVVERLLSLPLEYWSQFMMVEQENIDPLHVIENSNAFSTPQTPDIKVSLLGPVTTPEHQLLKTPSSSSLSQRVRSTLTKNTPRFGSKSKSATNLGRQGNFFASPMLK

[4] = molecular target: Luciferin 4-monooxygenase (Photinus pyralis, UniProt P08659); assay: inhibition of purified Photinus pyralis luciferase – biochemical, luminescence, dose response (AID 1891)
Sequence of Luciferin 4-monooxygenase (P08659 whole entry): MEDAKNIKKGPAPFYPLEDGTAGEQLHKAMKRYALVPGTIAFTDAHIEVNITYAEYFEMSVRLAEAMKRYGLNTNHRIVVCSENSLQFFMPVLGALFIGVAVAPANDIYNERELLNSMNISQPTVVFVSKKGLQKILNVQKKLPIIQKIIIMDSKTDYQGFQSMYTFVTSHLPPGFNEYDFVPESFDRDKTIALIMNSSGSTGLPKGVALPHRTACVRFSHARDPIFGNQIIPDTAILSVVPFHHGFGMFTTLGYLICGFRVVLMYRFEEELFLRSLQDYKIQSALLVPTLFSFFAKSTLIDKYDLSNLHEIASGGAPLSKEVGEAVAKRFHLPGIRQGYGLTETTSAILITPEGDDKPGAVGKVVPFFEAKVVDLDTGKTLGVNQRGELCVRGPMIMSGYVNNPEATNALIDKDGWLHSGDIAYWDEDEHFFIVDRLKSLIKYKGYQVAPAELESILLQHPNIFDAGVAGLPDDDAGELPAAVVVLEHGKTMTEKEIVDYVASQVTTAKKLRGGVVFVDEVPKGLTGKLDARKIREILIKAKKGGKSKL

HeLa = assay: ATP-based viability loss in HeLa cells – cell-based, CellTiter-Glo luminescence, cherry-pick samples, cytotoxicity control for MITF activator project, dose response (AID 540259); format: functional; details: Homo sapiens
Cytochrome P450 2C19 = Cytochrome P450 2C19 (Homo sapiens, UniProt P33261); assay: Cytochrome panel assay with activity outcomes. Panel member name: p450-cyp2c19 Compounds with AC50 equal or less than 10 uM are considered active; format: functional; details: read-out: AC50
Sequence of Cytochrome P450 2C19 (P33261 whole entry): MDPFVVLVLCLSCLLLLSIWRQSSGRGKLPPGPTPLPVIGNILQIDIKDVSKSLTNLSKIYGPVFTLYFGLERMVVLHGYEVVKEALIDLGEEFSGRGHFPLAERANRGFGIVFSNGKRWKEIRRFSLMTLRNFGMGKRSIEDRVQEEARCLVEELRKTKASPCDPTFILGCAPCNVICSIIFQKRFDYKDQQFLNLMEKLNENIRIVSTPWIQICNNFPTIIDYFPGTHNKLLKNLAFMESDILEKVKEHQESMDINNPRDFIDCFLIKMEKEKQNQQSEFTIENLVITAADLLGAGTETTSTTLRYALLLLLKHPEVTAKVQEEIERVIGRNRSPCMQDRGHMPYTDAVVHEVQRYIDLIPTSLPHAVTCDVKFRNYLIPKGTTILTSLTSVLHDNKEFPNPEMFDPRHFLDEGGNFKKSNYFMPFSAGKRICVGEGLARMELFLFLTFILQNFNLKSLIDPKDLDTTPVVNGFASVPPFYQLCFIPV

[5] = Trypanosoma cruzi growth suppression in host cells – NIH3T3 host cells, beta-gal luminescence, confirmation (AID 2044); format: functional, cell-based;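 also: intracellular parasites grown in NIH/3T3 mouse fibroblasts as host cells; luminescent beta-galactosidase reporter signal from transgenic T. cruzi replicating inside host cells; inhibitors lower the luminescence signal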
[6] = non-specific 3'UTR reporter inhibition in Clone20-Shn3RL – cell-based, Renilla luciferase, cherry-picked, counter-screen for Shn3 inhibitor project, dose response (AID 624133); format: functional
[7] = reduction of Shn3 3'UTR-driven luciferase in osteoblasts – cell-based, Clone20 osteoblasts, firefly luciferase, cherry-picked, dose response (AID 624132); format: functional;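 also: firefly luciferase luminescence from reporter carrying the Shn3 3'UTR in osteoblasts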
[8] = NIH3T3 cell viability loss – ATP luminescence, mouse fibroblasts, counter-screen, dose response (AID 2010); format: functional, cell-based;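 also: cells exposed to compound for about 90 hours before reading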
Genome polyprotein = Genome polyprotein (dengue virus type 2, UniProt P29990); assay: flavivirus cap methylation enzyme inhibition – biochemical, confirmation dose response, primary screen (AID 588689); format: functional
Sequence of Genome polyprotein (P29990 2492-3391 limits assumed): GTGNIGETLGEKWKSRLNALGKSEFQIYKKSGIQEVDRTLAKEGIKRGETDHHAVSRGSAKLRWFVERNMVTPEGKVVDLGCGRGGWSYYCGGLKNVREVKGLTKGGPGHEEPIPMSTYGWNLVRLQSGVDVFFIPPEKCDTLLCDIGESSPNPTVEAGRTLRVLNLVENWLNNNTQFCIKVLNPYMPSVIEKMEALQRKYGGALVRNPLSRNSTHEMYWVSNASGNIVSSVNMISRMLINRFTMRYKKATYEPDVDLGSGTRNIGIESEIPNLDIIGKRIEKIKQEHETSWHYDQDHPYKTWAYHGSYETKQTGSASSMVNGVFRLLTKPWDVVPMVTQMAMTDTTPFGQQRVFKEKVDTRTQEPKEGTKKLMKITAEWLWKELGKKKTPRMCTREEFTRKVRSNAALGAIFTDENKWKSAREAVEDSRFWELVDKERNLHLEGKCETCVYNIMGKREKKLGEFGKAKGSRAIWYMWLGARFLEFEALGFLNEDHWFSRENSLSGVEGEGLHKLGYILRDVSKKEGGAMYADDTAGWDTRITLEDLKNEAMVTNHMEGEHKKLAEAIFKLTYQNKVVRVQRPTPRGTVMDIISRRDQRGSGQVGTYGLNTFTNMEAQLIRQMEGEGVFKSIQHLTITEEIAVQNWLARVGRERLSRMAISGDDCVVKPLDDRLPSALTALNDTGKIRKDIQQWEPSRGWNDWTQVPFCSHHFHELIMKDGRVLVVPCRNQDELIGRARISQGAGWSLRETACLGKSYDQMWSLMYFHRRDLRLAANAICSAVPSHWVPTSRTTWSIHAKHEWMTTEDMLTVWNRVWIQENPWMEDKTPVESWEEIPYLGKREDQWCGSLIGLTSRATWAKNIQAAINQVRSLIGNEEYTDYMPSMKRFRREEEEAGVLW

[9] = molecular target: FAD-linked sulfhydryl oxidase ALR (Homo sapiens, UniProt P55789); assay: ALR-catalysed DTT oxidation blockers – biochemical, H2O2 detection, luminescence, cherry-pick, dose response (AID 493248)
Sequence of FAD-linked sulfhydryl oxidase ALR (P55789 whole entry): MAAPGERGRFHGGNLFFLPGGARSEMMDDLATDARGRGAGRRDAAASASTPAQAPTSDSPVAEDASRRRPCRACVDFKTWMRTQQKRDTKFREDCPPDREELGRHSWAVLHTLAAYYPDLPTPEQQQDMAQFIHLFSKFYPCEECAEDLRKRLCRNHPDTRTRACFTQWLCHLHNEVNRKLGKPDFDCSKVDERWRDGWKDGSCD

[10] = Luminescence Cell-Based Dose Retest to Confirm Inhibitors of Cancer Stem Cells. [Related pubchem assays (depositor defined):AID2717, AID2721]; format: functional; details: Homo sapiens
[11] = Luminescence Cell-Based Dose Response HTS to Identify Inhibitors of 5'UTR Stem-Loop Driven Prion Protein mRNA Translation in H4 Neuroglioblastoma Cells. [Related pubchem assays: 1827 (Project Summary), 1813 (Primary HTS)]; format: functional
[12] = luciferase reporter signal suppression in cells – H4 neuroglioma cells, luminescence, dose response (AID 1990); format: functional, cell-based
[13] = alpha-synuclein stem-loop luciferase translation blockers – H4 neuroglioma cells, luminescence, confirmation (AID 1988); format: functional, cell-based
[14] = molecular target: T4, Calpain-2 catalytic subunit (Sus scrofa, UniProt P43367); assay: m-calpain protease blockers, concentration series – biochemical, fluorogenic peptide substrate, dose response (AID 1420); format: functional
T4 sequence (P43367 whole entry): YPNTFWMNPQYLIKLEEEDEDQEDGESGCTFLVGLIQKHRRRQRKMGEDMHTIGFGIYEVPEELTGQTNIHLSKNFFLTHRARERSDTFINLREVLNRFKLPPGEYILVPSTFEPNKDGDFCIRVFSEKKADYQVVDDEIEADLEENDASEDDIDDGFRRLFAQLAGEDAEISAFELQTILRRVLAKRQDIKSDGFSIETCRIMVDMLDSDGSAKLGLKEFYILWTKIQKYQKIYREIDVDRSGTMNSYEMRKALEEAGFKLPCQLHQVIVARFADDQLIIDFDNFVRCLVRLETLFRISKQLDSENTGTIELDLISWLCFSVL

cells = format: functional
H9c2 = assay: cells; format: functional, cell-based; details: Rattus norvegicus, H9c2, Myocardium;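 also: confirmatory concentration-response retest of ultra-high-throughput screening hits for modulation of myocardial damage; cell death induced by hydrogen peroxide oxidative stress; compound pretreatment for 60 min then peroxide exposure for 2 h; potency is for protecting the cells against peroxide damage rather than for killing them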
[15] = loss of viability in HepG2 cells – cell-based, CellTiter-Glo, cherry-picked, cytotoxicity control for Shn3 inhibitor project, dose response (AID 624134); format: functional
[16] = microbe, parasite or virus in culture; format: functional; details: Mycobacterium tuberculosis

Sequence of Cytochrome P450 2C9 (P11712 whole entry): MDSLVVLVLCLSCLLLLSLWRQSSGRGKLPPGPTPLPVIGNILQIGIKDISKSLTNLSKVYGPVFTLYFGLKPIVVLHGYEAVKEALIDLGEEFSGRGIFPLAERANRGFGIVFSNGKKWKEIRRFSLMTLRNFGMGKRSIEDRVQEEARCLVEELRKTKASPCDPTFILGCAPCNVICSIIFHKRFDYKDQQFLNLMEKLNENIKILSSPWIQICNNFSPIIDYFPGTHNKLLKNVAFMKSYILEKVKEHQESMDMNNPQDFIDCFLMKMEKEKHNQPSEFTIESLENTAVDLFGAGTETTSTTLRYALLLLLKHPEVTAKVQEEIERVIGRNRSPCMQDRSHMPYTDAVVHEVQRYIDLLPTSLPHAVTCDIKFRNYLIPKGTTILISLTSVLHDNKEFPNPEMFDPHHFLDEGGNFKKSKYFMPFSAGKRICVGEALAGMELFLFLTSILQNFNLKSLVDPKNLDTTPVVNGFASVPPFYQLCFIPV

CCNc1ncc2nc(-c3cn(C)c4ccccc34)c(=O)n(-c3ccccc3)c2n1
AC50 (Cytochrome P450 2C9): inconclusive | AC50 (Cytochrome P450 1A2): 15.8 µM (inconclusive) | AC50 (Cytochrome P450 2D6): 25.1 µM (inconclusive) | AC50 (Cytochrome P450 3A4): 6.31 µM (inconclusive)

O=C(Cn1cncn1)N/N=C/c1ccccc1O
IC50 (Nonstructural protein 1): 22.1 µM (active)

COc1ccc(OCC(=O)NNC(=O)c2ccc(-c3ccccc3)cc2)cc1
AC50 (Cytochrome P450 2C9): inconclusive | IC50 [1]: 7.77 µM (active)

C=CC[C@H](CC(=O)N(CCO)Cc1ccccc1)C(=O)N[C@@H](COC(=O)[C@H](CC=C)CC(=O)OC(C)(C)C)Cc1c[nH]c2ccccc12
AC50 (Paired box protein Pax-8): 15.9 µM (active)

Oc1ccc(/C=N/Nc2cccc(Cl)n2)c(O)c1
EC50 [2]: 1.39 µM (active) | IC50 [3]: 29 µM (active) | EC50 [4]: 1.66 µM (active) | AC50 (HeLa): 316 µM (active)

O=S1(=O)N=C(N/N=C/c2ccccn2)c2ccccc21
IC50 (Nonstructural protein 1): 3.27 µM (active)

CC(=O)c1cccc(NC(=O)Cc2ccc3c(c2)CCCC3)c1
AC50 (Cytochrome P450 2C9): inconclusive | AC50 (Cytochrome P450 1A2): 25.1 µM (inconclusive) | AC50 (Cytochrome P450 2C19): 3.16 µM (inconclusive) | AC50 (Cytochrome P450 2D6): 4.47 µM (inconclusive)

C=CS(=O)(=O)c1sc(Cl)c(N2CCOCC2)c1[N+](=O)[O-]
EC50 [5]: 5.42 µM (active) | AC50 [6]: 13.3 µM (active) | AC50 [7]: 1.31 µM (active) | EC50 [8]: 7.27 µM (active) | IC50 (Genome polyprotein): 11 µM (active)

Clc1ccc(N/N=C/c2cccnc2)cc1
AC50 (HeLa): 41.7 µM (active) | AC50 [9]: 426 nM (active) | AC50 [10]: 4.65 µM (active)

CCNC(=O)C(=O)N/N=C/c1cc([N+](=O)[O-])ccc1O
IC50 (Nonstructural protein 1): 2.44 µM (active)

COc1cccc(/C=N/N2C(=O)CSC2=S)c1O
IC50 (Nonstructural protein 1): 2.19 µM (active)

C[C@@H]1CCCCO[C@@H](CN(C)Cc2ccc(C(F)(F)F)cc2)[C@H](C)CN([C@H](C)CO)C(=O)c2cc(NS(=O)(=O)c3ccc(Cl)cc3)ccc2O1
AC50 (Paired box protein Pax-8): 8.48 µM (active)

CCCCCc1cc(=O)oc2c(C(CCN(CC)CC)c3ccc(N(C)C)cc3)c(OC)cc(OC)c12 (configuration not stated)
IC50 (Nonstructural protein 1): 9.17 µM (active)

CNc1nc(Cl)nc(NC(C)(C)C)n1
AC50 (Cytochrome P450 2C9): inconclusive | EC50 [11]: > 120 µM (not active) | EC50 [12]: 12.7 µM (active) | EC50 [13]: > 120 µM (not active)

Cc1ccc(C(=O)Oc2cccc(-n3cnnn3)c2)cc1
IC50 [14]: 10.5 µM (not active) | AC50 (HeLa): > 350 µM (inactive) | IC50 (cells): 13.7 µM (active)

CCOC(=O)C1=NN(c2ccccc2)C(=O)/C1=C\c1ccc(N(C)C)cc1
IC50 (Nonstructural protein 1): > 100 µM (active)

O=C1NC(=O)C(=Cc2ccc3ccccc3c2)C(=O)N1
IC50 (Genome polyprotein): 50.8 µM (active)

COc1cc(-c2cnc3c(NC=O)cc(-c4cccc(NC(C)=O)c4)cn23)cc(OC)c1OC
IC50 (H9c2): > 79 µM (inactive) | AC50 (Paired box protein Pax-8): 2.88 µM (active)

COc1ccc(C2/C=C\CN(S(=O)(=O)c3ccc(C)cc3)[C@H](Cc3ccccc3)C(=O)N2Cc2ccc(F)cc2)cc1 (some centres not stated)
AC50 [15]: > 70 µM (inactive) | AC50 [6]: 25.5 µM (active) | AC50 [7]: 12.9 µM (active)

CC(C)(C)C(=O)N1CCN(c2ccc(NC(=O)c3ccc([N+](=O)[O-])o3)cc2)CC1
AC50 [15]: > 70 µM (inactive) | AC50 [6]: 7.74 µM (active) | AC50 [7]: 2.45 µM (active) | CC50 [16]: 2.96 µM (active)

CC(=O)N=C(N)Nc1nc(=O)c2ccccc2s1
AC50 (HeLa): 69.2 µM (active)

COC(=O)C1=CN(c2cccc(C)c2)C=C(C(=O)OC)C1c1cc(OC)c(O)c([N+](=O)[O-])c1
IC50 (Genome polyprotein): 56.5 µM (active)

O=C(Cc1ccc(Cl)cc1)Nc1ccc(N2CCN(C(=O)c3ccco3)CC2)cc1
AC50 [15]: > 70 µM (inactive) | AC50 [6]: 6.62 µM (active) | AC50 [7]: > 70 µM (inactive)
